Test results published in ChEMBL document CHEMBL5096204 (J Med Chem, 2021).

Key:
[1] = Lipophilicity, logD of the compound in octanol/buffer at pH 7.4 by shake flask method; assay type: physicochemical
[2] = Dissociation constant, pKa of the compound; assay type: physicochemical
[3] = Volume of distribution in Han-wistar rat at […], iv; assay type: ADME; settings: in vivo, dose 1.5 µmol/kg
[4] = Apparent permeability of compound from apical to basolateral side in human Caco-2 cells; assay type: ADME, cell-based
[5] = Volume of distribution in SCID mouse at 5 umol/kg, iv; assay type: ADME; settings: in vivo, dose 5 µmol/kg
[6] = Drug metabolism in SCID mouse plasma assessed as 1-Isopropyl-5-(2-(piperidin-4-yl)-1H-pyrrolo[2,3-b]pyridin-4-yl)-pyridin-2(1H)-one metabolite formation at 0.5 mg/kg, iv administered as cassette dose; assay type: ADME, organism-based; settings: in vivo

| Compound | logD [1] | pKa [2] | Vd [3] | other results |
| --- | --- | --- | --- | --- |
| COc1cc(F)ccc1-c1ccnc2[nH]c(-c3ccc(CN4CCOCC4)cc3)cc12 | 4.4 |  |  |  |
| CNC(=O)CN1CCC(c2cc3c(-c4ccc(=O)n(C(C)C)c4)ccnc3[nH]2)CC1 | 2.2 | 6.9 | 2.6 L/kg |  |
| COc1cc(F)ccc1-c1ccnc2[nH]c(C3CCN(C)CC3)cc12 | 2.6 | 9 | 5.2 L/kg |  |
| COc1cc(C(=O)N2CCCC2)ccc1-c1ccnc2[nH]c(-c3ccc(CN4CCOCC4)cc3)nc12 | 2.6 |  |  |  |
| COc1cc(C(=O)N2CCCC2)ccc1-c1ccnc2[nH]c(C3CCOCC3)cc12 | 3 |  | 0.8 L/kg |  |
| COc1cc(C(=O)N2CCCC2)ccc1-c1ccnc2[nH]c(C3CCNCC3)cc12 |  | 10.2 | 5.8 L/kg | Papp A→B [4]: < 0.01 ×10⁻⁶ cm/s |
| COc1cc(F)ccc1-c1ccnc2[nH]c(C3CCNCC3)nc12 | 0 |  |  |  |
| COc1cc(C(=O)N2CCCC2)ccc1-c1ccnc2[nH]c(C3CCN(CCO)CC3)cc12 | 1.3 |  |  |  |
| COc1cc(F)ccc1-c1ccnc2[nH]c(C3CCN(CC(=O)N(C)C)CC3)cc12 | 2.9 | 8 | 2.3 L/kg |  |
| Cc1nc2ccc(-c3ccnc4[nH]c(C5CCN(CC(=O)N(C)C)CC5)cc34)cc2n1C(C)C | 3.1 |  |  |  |
| COc1cc(F)ccc1-c1ccnc2[nH]c([C@H]3CC[C@H](NC(C)=O)CC3)cc12 | 3.8 |  | 2.5 L/kg |  |
| COc1cc(F)ccc1-c1ccnc2[nH]c(C3CCOCC3)cc12 | 3.9 |  |  |  |
| COc1cc(F)ccc1-c1ccnc2[nH]c(C3CCN(CCO)CC3)cc12 | 2.4 | 8.5 | 12 L/kg |  |
| COc1cc(F)ccc1-c1ccnc2[nH]c(C3CCNCC3)cc12 | 1.2 | 10.2 | 10 L/kg | Vd [5]: 14 L/kg |
| CC(C)n1cc(-c2ccnc3[nH]c(C4CCN(CC(=O)N(C)C)CC4)cc23)cnc1=O | 0.4 |  | 2.9 L/kg |  |
| CC(C)n1cc(-c2ccnc3[nH]c(C4CCN(CC(F)F)CC4)cc23)ccc1=O | 2.9 | 6 | 1.8 L/kg |  |
| CC(C)n1cc(-c2ccnc3[nH]c(C4CCNCC4)cc23)ccc1=O | -0.2 |  |  |  |
| CC(C)n1cc(-c2ccnc3[nH]c(C4CCN(CC(=O)N5CCCCC5)CC4)cc23)ccc1=O |  | 7.8 | 8.1 L/kg | Drug metabolism [6]: Metabolite_Notdetected; Vd [5]: 1.5 L/kg |
| O=C(c1ccc(-c2ccnc3[nH]c(-c4ccc(CN5CCOCC5)cc4)nc23)cc1)N1CCCC1 | 3.2 |  |  |  |
| CC(C)n1cc(-c2ccnc3[nH]c(C4CCN(Cc5cccs5)CC4)cc23)ccc1=O | 3.4 | 6.5 | 1.6 L/kg |  |
| COc1cc(F)ccc1-c1ccnc2[nH]c(-c3ccc(CN4CCOCC4)cc3)nc12 | 3.7 |  |  |  |
| COc1cc(F)ccc1-c1ccnc2[nH]c(C3CCN(C(C)=O)CC3)cc12 | 3.4 |  | 1.7 L/kg |  |
| CC(=O)N1CCC(c2cc3c(-c4ccc(=O)n(C(C)C)c4)ccnc3[nH]2)CC1 | 2.1 |  |  |  |
| COc1cc(F)ccc1-c1ccnc2[nH]c(C3CCC(NC(C)=O)C3)nc12 (centres undefined) | 2.3 |  |  |  |
| COc1cc(C(=O)N2CCCC2)ccc1-c1ccnc2[nH]c(C3CCN(C(C)=O)CC3)cc12 | 2.5 |  | 0.9 L/kg |  |

Now from value to compound, other results behind:

| logD [1] | pKa [2] | Vd [3] | Compound | other results |
| --- | --- | --- | --- | --- |
| 1.7 |  |  | CSCCn1cc(-c2ccnc3[nH]c(C4CCN(CC(=O)N(C)C)CC4)cc23)ccc1=O |  |
| 1.2 |  |  | CCn1cc(-c2ccnc3[nH]c(C4CCN(CC(=O)N(C)C)CC4)cc23)ccc1=O |  |
| 2 |  |  | CC(C)Cn1cc(-c2ccnc3[nH]c(C4CCN(CC(=O)N(C)C)CC4)cc23)ccc1=O |  |
|  | 7.9 | 5.9 L/kg | CC(C)n1cc(-c2ccnc3[nH]c(C4CCN(CC(=O)N(C)C)CC4)cc23)ccc1=O |  |
| 1.9 |  |  | CN(C)C(=O)CN1CCC(c2cc3c(-c4ccc(=O)n(C5CCC5)c4)ccnc3[nH]2)CC1 |  |
| 1.5 |  |  | CN(C)C(=O)CN1CCC(c2cc3c(-c4ccc(=O)n(CCC5CCOCC5)c4)ccnc3[nH]2)CC1 |  |
| 2 | 7.6 | 2.9 L/kg | CC(C)n1nc(-c2ccnc3[nH]c(C4CCN(CC(=O)N(C)C)CC4)cc23)ccc1=O |  |
| 1.1 |  |  | COCCn1cc(-c2ccnc3[nH]c(C4CCN(CC(=O)N(C)C)CC4)cc23)ccc1=O |  |
| 1.1 |  |  | CN(C)C(=O)CN1CCC(c2cc3c(-c4ccc(=O)n(C5CCOCC5)c4)ccnc3[nH]2)CC1 |  |
| 0.7 |  |  | COc1cc(=O)n(C)cc1-c1ccnc2[nH]c(C3CCN(CC(=O)N(C)C)CC3)cc12 |  |
| 1.1 |  |  | CN(C)C(=O)CN1CCC(c2cc3c(-c4ccc(=O)n(C)c4)ccnc3[nH]2)CC1 |  |
|  | 7.8 | 3.9 L/kg | CC(C)n1cc(-c2ccnc3[nH]c(C4CCN(CC(=O)N5CCCC5)CC4)cc23)ccc1=O | Drug metabolism [6]: Metabolite_Notdetected; Vd [5]: 1.2 L/kg |
| 1.4 |  |  | CN(C)C(=O)CN1CCC(c2cc3c(-c4ccc(=O)n(CC5CCOCC5)c4)ccnc3[nH]2)CC1 |  |
